Drawing on ChEMBL document CHEMBL1909046, “DrugMatrix in vitro pharmacology data”, this text covers IC50 and Ki for 23 compounds.

Test [1] is described as follows: DRUGMATRIX: GABAA, Muscimol, Central radioligand binding (ligand: [3H] Muscimol). The format is cell membranes, Rattus norvegicus, Wistar, Brain, Membrane. As to conditions: Not Active = under 50% inhibition at 10 µM.
In test [2] the target is Beta-3 adrenergic receptor (Homo sapiens, UniProt P13945). In words: DRUGMATRIX: Adrenergic beta3 radioligand binding (ligand: [125I] Cyanopindolol). The class given is cell membranes, HEK293, Membrane. The note with it: hek293; Not Active = under 50% inhibition at 10 µM.
Test [3] deals with Sigma non-opioid intracellular receptor 1 (Homo sapiens, UniProt Q99720). In words: DRUGMATRIX: Sigma1 radioligand binding (ligand: [3H] Haloperidol). The class given is cell membranes, Jurkat, Membrane. The note with it: Not Active = under 50% inhibition at 10 µM.
The target in test [4] is Epidermal growth factor receptor (Homo sapiens, UniProt P00533). In words: DRUGMATRIX: Protein Tyrosine Kinase, EGF Receptor enzyme inhibition (substrate: Poly(Glu:Tyr)). The class given is cell-based, Insect cells. The note with it: insect cells; Not Active = under 50% inhibition at 10 µM.
The next test concerns the target Substance-P receptor (Homo sapiens, UniProt P25103). The class given is cell membranes, Membrane. As to conditions: cho. Further: in other assays of this panel Not Active means under 50% inhibition at 10 µM.
The target in test [5] is T1, Alpha-1D adrenergic receptor (Homo sapiens, UniProt P25100). Further: in other assays of this panel Not Active means under 50% inhibition at 10 µM.
T1 sequence (P25100 whole entry): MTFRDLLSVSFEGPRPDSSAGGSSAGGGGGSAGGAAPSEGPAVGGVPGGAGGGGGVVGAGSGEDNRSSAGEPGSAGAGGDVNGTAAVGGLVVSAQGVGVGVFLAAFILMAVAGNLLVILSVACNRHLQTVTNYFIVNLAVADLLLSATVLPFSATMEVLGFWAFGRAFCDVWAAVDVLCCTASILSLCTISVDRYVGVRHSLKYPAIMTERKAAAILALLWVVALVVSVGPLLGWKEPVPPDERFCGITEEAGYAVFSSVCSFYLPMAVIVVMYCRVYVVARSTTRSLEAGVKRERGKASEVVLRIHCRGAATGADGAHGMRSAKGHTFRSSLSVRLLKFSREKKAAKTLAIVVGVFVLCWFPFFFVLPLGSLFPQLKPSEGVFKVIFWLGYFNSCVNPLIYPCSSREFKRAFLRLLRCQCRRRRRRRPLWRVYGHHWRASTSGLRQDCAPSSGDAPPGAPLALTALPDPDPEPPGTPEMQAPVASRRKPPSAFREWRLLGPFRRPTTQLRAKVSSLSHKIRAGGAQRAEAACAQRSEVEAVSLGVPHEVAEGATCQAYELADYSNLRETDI
The class given is cell membranes, HEK293, Membrane. As to conditions: hek293.

Beta-3 adrenergic receptor, sequence (P13945 whole entry): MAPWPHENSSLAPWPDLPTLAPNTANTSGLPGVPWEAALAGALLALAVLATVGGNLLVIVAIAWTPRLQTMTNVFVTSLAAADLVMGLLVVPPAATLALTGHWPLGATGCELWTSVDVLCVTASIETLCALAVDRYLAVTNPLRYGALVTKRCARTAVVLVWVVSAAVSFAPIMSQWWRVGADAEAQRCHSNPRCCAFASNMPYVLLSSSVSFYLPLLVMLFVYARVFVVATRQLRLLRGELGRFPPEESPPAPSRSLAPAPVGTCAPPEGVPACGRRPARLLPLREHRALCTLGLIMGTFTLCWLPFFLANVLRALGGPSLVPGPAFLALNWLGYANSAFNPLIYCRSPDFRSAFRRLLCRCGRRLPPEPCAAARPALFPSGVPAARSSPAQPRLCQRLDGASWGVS
Substance-P receptor, sequence (P25103 whole entry): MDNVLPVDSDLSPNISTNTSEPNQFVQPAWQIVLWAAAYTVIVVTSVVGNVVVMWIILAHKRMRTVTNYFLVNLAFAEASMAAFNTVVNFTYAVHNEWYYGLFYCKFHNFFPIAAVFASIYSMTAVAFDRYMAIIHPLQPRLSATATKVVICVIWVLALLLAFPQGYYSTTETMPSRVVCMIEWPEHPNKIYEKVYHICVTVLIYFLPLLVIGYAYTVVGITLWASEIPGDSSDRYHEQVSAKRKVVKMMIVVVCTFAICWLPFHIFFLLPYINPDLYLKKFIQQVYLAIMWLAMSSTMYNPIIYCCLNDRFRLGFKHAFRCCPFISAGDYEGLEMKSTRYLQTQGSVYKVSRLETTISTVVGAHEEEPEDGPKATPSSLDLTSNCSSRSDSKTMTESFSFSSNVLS
Epidermal growth factor receptor, sequence (P00533 whole entry): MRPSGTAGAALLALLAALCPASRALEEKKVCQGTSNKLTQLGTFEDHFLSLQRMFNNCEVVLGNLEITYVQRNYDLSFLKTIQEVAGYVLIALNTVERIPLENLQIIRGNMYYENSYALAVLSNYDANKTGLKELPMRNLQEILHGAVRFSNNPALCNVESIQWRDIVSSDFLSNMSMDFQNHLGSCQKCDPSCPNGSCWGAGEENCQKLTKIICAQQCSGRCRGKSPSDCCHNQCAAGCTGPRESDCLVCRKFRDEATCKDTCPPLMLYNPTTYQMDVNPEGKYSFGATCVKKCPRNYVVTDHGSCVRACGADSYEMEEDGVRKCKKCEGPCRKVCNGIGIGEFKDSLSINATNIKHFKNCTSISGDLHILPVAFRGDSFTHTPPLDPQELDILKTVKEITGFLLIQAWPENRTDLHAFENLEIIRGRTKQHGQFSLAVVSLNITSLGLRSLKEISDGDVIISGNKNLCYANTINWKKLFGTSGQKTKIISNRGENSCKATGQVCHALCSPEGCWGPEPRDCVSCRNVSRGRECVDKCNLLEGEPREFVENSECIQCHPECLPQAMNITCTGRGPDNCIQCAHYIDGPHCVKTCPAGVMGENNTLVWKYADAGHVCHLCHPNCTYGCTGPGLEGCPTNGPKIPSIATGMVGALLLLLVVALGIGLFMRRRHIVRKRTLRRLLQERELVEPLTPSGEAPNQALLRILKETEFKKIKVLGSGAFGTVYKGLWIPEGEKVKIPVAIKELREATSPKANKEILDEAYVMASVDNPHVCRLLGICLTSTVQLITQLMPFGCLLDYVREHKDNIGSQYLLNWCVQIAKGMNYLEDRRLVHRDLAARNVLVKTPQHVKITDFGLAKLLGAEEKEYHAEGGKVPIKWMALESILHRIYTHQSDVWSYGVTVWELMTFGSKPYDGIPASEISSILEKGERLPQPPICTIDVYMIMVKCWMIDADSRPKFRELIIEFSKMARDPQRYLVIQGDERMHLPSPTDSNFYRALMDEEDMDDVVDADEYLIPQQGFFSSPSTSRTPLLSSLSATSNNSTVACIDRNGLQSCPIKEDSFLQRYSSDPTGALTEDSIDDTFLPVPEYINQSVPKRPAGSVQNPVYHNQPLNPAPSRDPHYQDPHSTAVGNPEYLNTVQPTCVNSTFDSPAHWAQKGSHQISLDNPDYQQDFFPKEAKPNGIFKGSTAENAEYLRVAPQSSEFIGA
Sigma non-opioid intracellular receptor 1, sequence (Q99720 whole entry): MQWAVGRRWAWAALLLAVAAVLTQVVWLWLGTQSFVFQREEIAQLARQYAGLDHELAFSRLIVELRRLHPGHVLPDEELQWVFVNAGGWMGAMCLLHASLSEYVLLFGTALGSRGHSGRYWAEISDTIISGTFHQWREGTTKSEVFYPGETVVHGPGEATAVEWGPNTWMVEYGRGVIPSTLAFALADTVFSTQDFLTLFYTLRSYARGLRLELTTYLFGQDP

As a reminder, the IC50 is the concentration that inhibits the measured activity by half. Usually Ki stands for a measure of affinity in units of concentration, obtained from inhibition or displacement. As to `CCOc1cc(N)c(Cl)cc1C(=O)NCC1CN(Cc2ccc(F)cc2)CCO1` (configuration not stated) [MOSAPRIDE], the IC50 result is “Not Active” in test [1]; “Not Active” in test [2]; 0.306 µM in test [3] (read-out: IC50); “Not Active” in test [4]; “Not Active” at Substance-P receptor; “Not Active” in test [5]. The Ki result in test [1] was “Not Active”; in test [3] (read-out: Ki), 0.128 µM.

For the compound `CCN(CC)N=O` [N-NITROSODIETHYLAMINE], the IC50 entry (in test [1]; in test [2]; in test [3] (jurkat); in test [4]; against Substance-P receptor; in test [5]) was “Not Active” throughout. The inhibition constant (Ki) result in test [1] is reported as “Not Active”.

In the case of `O=C1CC[C@@]2(O)[C@H]3Cc4ccc(O)c5c4[C@@]2(CCN3CC2CC2)[C@H]1O5` [NALTREXONE], the IC50 result (in test [1]; in test [2]; in test [3] (jurkat); in test [4]; against Substance-P receptor; in test [5]) was “Not Active” throughout. Besides, the Ki entry in test [1] is “Not Active”.

Consider `Oc1ccc(/C=C/c2cc(O)cc(O)c2)cc1` [RESVERATROL], for which the half-maximal inhibitory concentration (IC50) result (in test [1]; in test [2]; in test [3] (jurkat); in test [4]; at Substance-P receptor; in test [5]) was “Not Active” throughout. The inhibition constant Ki entry in test [1] is reported as “Not Active”.

`CC(N)C12CC3CC(CC(C3)C1)C2` (configuration not stated) [RIMANTADINE]: the 50% inhibitory concentration (IC50) result (in test [1]; in test [2]; in test [3] (jurkat); in test [4]; against Substance-P receptor; in test [5]) was “Not Active” throughout. Also, the inhibitory constant (Ki) entry in test [1] is reported as “Not Active”.

In the case of `CS(=O)(=O)c1ccc(C2=C(c3ccccc3)C(=O)OC2)cc1` [ROFECOXIB], the half-inhibitory concentration (IC50) entry (in test [1]; in test [2]; in test [3] (jurkat); in test [4]; against Substance-P receptor; in test [5]) was “Not Active” in each case. In addition, the inhibition constant Ki result in test [1] was “Not Active”.

As for `C=CCc1ccc2c(c1)OCO2` [SAFROLE], the half-maximal inhibitory concentration (IC50) entry (in test [1]; in test [2]; in test [3] (jurkat); in test [4]; at Substance-P receptor; in test [5]) was “Not Active” throughout. Moreover, the Ki result in test [1] is reported as “Not Active”.

`CCC(C)(C)C(=O)O[C@H]1C[C@@H](C)C=C2C=C[C@H](C)[C@H](CC[C@@H]3C[C@@H](O)CC(=O)O3)[C@H]21` [SIMVASTATIN]: the IC50 result (in test [1]; in test [2]; in test [3] (jurkat); in test [4]; against Substance-P receptor; in test [5]) was “Not Active” in each case. Further, the Ki result in test [1] is on record as “Not Active”.

Consider `O=[As][O-].[Na+]` [SODIUM ARSENITE], for which the IC50 entry (in test [1]; in test [2]; in test [3] (jurkat); in test [4]; at Substance-P receptor; in test [5]) was “Not Active” throughout. The Ki entry in test [1] is given as “Not Active”.

With `C1CCN2C[C@@H]3C[C@@H](CN4CCCC[C@@H]34)[C@H]2C1` [SPARTEINE], the IC50 result (in test [1]; in test [2]; in test [3] (jurkat); in test [4]; against Substance-P receptor; in test [5]) was “Not Active” throughout. In addition, the inhibition constant (Ki) result in test [1] is listed as “Not Active”.

Turning to `C[C@]12CCC(=O)C[C@@H]1CC[C@@H]1[C@@H]2CC[C@]2(C)[C@@H](O)CC[C@@H]12` [STANOLONE], the IC50 result (in test [1]; in test [2]; in test [3] (jurkat); in test [4]; against Substance-P receptor; in test [5]) was “Not Active” throughout. Besides, the Ki result in test [1] is recorded as “Not Active”.

Turning to `Cc1cn([C@H]2C=C[C@@H](CO)O2)c(=O)[nH]c1=O` [STAVUDINE], the IC50 result (in test [1]; in test [2]; in test [3] (jurkat); in test [4]; on Substance-P receptor; in test [5]) was “Not Active” throughout. Besides, the Ki result in test [1] is on record as “Not Active”.

Consider `CC1(C)[C@H](C(=O)O)N2C(=O)C[C@H]2S1(=O)=O` [SULBACTAM], for which the IC50 entry (in test [1]; in test [2]; in test [3] (jurkat); in test [4]; on Substance-P receptor; in test [5]) was “Not Active” in each case. Also, the inhibitory constant (Ki) entry in test [1] is on record as “Not Active”.

In the case of `Cc1ccnc(NS(=O)(=O)c2ccc(N)cc2)n1` [SULFAMERAZINE], the IC50 result (in test [1]; in test [2]; in test [3] (jurkat); in test [4]; on Substance-P receptor; in test [5]) was “Not Active” each time. Also, the inhibition constant Ki result in test [1] was “Not Active”.

As for `Cc1nnc(NS(=O)(=O)c2ccc(N)cc2)s1` [SULFAMETHIZOLE], the 50% inhibitory concentration (IC50) result (in test [1]; in test [2]; in test [3] (jurkat); in test [4]; against Substance-P receptor; in test [5]) was “Not Active” each time. In addition, in test [1], the Ki result is listed as “Not Active”.

As for `O=C(O)c1cc(/N=N/c2ccc(S(=O)(=O)Nc3ccccn3)cc2)ccc1O` [SULFASALAZINE], the IC50 entry (in test [1]; in test [2]; in test [3] (jurkat); in test [4]; on Substance-P receptor; in test [5]) was “Not Active” throughout. Further, the Ki result in test [1] was “Not Active”.

For `CCN1CCCC1CNC(=O)c1cc(S(N)(=O)=O)ccc1OC` (configuration not stated) [SULPIRIDE], the half-maximal inhibitory concentration (IC50) entry (in test [1]; in test [2]; in test [3] (jurkat); in test [4]; on Substance-P receptor; in test [5]) was “Not Active” each time. The Ki entry in test [1] was “Not Active”.

`O=C(OC[C@H]1O[C@@H](OC(=O)c2cc(O)c(O)c(OC(=O)c3cc(O)c(O)c(O)c3)c2)[C@H](OC(=O)c2cc(O)c(O)c(OC(=O)c3cc(O)c(O)c(O)c3)c2)[C@@H](OC(=O)c2cc(O)c(O)c(OC(=O)c3cc(O)c(O)c(O)c3)c2)[C@@H]1OC(=O)c1cc(O)c(O)c(OC(=O)c2cc(O)c(O)c(O)c2)c1)c1cc(O)c(O)c(OC(=O)c2cc(O)c(O)c(O)c2)c1` [TANNIC ACID]: the IC50 entry (in test [1]; in test [2]; in test [3] (jurkat); in test [4]; on Substance-P receptor; in test [5]) was “Not Active” in each case. The Ki entry in test [1] is listed as “Not Active”.

For `C#C[C@]1(O)CC[C@H]2[C@@H]3[C@H](C)CC4=C(CCC(=O)C4)[C@H]3CC[C@@]21C` [TIBOLONE], the IC50 result (in test [1]; in test [2]; in test [3] (jurkat); in test [4]; against Substance-P receptor; in test [5]) was “Not Active” in each case. Also, the Ki result in test [1] is on record as “Not Active”.

In the case of `Cc1cccc(C)c1NC(=O)C(C)N` (configuration not stated) [TOCAINIDE], the IC50 result (in test [1]; in test [2]; in test [3] (jurkat); in test [4]; on Substance-P receptor; in test [5]) was “Not Active” in each case. Also, the Ki entry in test [1] was “Not Active”.

`Cc1ccc(S(=O)(=O)NC(=O)NN2CCCCCC2)cc1` [TOLAZAMIDE]: the IC50 result (in test [1]; in test [2]; in test [3] (jurkat); in test [4]; at Substance-P receptor; in test [5]) was “Not Active” in each case. In test [1], the inhibition constant (Ki) entry is given as “Not Active”.

For `CC[C@@]1(O)C(=O)OCc2c1cc1n(c2=O)Cc2cc3c(CN(C)C)c(O)ccc3nc2-1` [TOPOTECAN], the IC50 result (in test [1]; in test [2]; in test [3] (jurkat); in test [4]; on Substance-P receptor; in test [5]) was “Not Active” in each case. The Ki entry in test [1] is listed as “Not Active”.

As for `CC1=C(/C=C/C(C)=C/C=C/C(C)=C/C(=O)O)C(C)(C)CCC1` [TRETINOIN], the IC50 entry (in test [1]; in test [2]; in test [3] (jurkat); in test [4]; at Substance-P receptor; in test [5]) was “Not Active” in each case. Moreover, the Ki result in test [1] is on record as “Not Active”.
